Data published in ChEMBL document CHEMBL1150970, “Starfish saponins. 55. Isolation, structure elucidation, and biological activity of the steroid oligoglycosides from an Antarctic starfish of the family Asteriidae” (J Nat Prod, 1998).

Test: Cytotoxicity against human NSCLC-L16 cells
Format: functional, cell-based

Row | SMILES | IC50 [µg/mL]
1 | CC(C)[C@H](/C=C/[C@@H](C)[C@H]1C[C@@H](O)[C@@H]2[C@]1(C)CC[C@@H]1[C@@]3(C)CC[C@H](O[C@@H]4OC[C@@H](O)[C@H](O)[C@H]4O)C[C@@H]3[C@@H](O)[C@@H](O)[C@]12O)O[C@@H]1OC[C@@H](O)[C@H](OS(=O)(=O)[O-])[C@H]1O.[Na+] [ASTERIIDOSIDE I] | > 30
2 | C=C(CC[C@](C)(O)[C@H]1CC[C@H]2[C@@H]3C[C@H](O[C@@H]4O[C@H](C)[C@@H](O)[C@H](O[C@@H]5OC[C@@H](O[C@@H]6O[C@H](C)[C@H](O)[C@H](O)[C@H]6O[C@@H]6OC[C@H](O)[C@H](O[C@@H]7O[C@H](CO)[C@H](O)[C@H](O)[C@H]7O)[C@H]6O)[C@H](O)[C@H]5O[C@@H]5O[C@H](C)[C@@H](O)[C@H](O)[C@H]5O)[C@H]4C)[C@H]4C[C@@H](OS(=O)(=O)[O-])CC[C@]4(C)C3=CC[C@@]21C)C(C)C.[Na+] [ASTERIIDOSIDE D] | 11.4
3 | CC(C)=CCC[C@](C)(O)[C@H]1CC[C@H]2[C@@H]3C[C@H](O[C@@H]4O[C@H](C)[C@@H](O)[C@H](O[C@@H]5OC[C@@H](O[C@@H]6O[C@H](C)[C@H](O)[C@H](O)[C@H]6O[C@@H]6OC[C@H](O)[C@H](O[C@@H]7O[C@H](CO)[C@H](O)[C@H](O)[C@H]7O)[C@H]6O)[C@H](O)[C@H]5O[C@@H]5O[C@H](C)[C@@H](O)[C@H](O)[C@H]5O)[C@H]4C)[C@H]4C[C@@H](OS(=O)(=O)[O-])CC[C@]4(C)C3=CC[C@@]21C.[Na+] [ASTERIIDOSIDE E] | 18.1
4 | CC(C)CC(=O)C[C@](C)(O)[C@H]1CC[C@H]2[C@@H]3C[C@H](O[C@@H]4O[C@H](C)[C@@H](O)[C@H](O[C@@H]5O[C@H](C)[C@@H](O[C@@H]6O[C@H](CO)[C@H](O)[C@H](O)[C@H]6O[C@@H]6O[C@H](C)[C@H](O)[C@H](O[C@@H]7O[C@H](CO)[C@H](O)[C@H](O)[C@H]7O)[C@H]6O)[C@H](O)[C@H]5O[C@@H]5O[C@H](C)[C@@H](O)[C@H](O)[C@H]5O)[C@H]4C)[C@H]4C[C@@H](OS(=O)(=O)[O-])CC[C@]4(C)C3=CC[C@@]21C.[Na+] [ASTERIIDOSIDE A] | > 30
5 | C[C@@H](C/C=C/[C@@H](C)[C@H]1[C@@H](O)[C@@H](O)[C@@H]2[C@]1(C)CC[C@@H]1[C@@]3(C)CC[C@H](O[C@@H]4OC[C@@H](O)[C@H](O)[C@H]4O)C[C@@H]3[C@@H](O)C[C@]12O)CO[C@@H]1OC[C@@H](O)[C@H](O)[C@H]1O [ASTERIIDOSIDE F] | > 30
6 | CC(C)[C@@H](/C=C/[C@@H](C)[C@H]1C[C@H](O)[C@@H]2[C@]1(C)CC[C@@H]1[C@@]3(C)CC[C@H](O[C@@H]4OC[C@@H](O)[C@H](O)[C@H]4O)C[C@@H]3[C@H](O)C[C@]12O)COS(=O)(=O)[O-].[Na+] [ASTERIIDOSIDE L] | > 30
